Laboratory results as given in PubChem BioAssay (NCI).
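Interpolation was linear, between the two tested concentrations surrounding the appropriate level; five concentrations were tested over 48 hours in 96-well plates. TGI denotes the concentration required for complete inhibition of growth.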

Assays:
Experiment in all cases: NCI anticancer screen, dose series, 48 h
[1] = test system: 786-0 renal
[2] = test system: A498 renal
[3] = test system: A549 NSCLC
[4] = test system: ACHN renal
[5] = test system: BT-549 breast
[6] = test system: CAKI-1 renal
[7] = test system: CCRF-CEM leukemia
[8] = test system: COLO 205 colon
[9] = test system: DU-145 prostate
[10] = test system: EKVX NSCLC
[11] = test system: HCC-2998 colon
[12] = test system: HCT-116 colon
[13] = test system: HCT-15 colon
[14] = test system: HL-60(TB) leukemia
[15] = test system: HOP-62 NSCLC
[16] = test system: HOP-92 NSCLC
[17] = test system: HS 578T breast
[18] = test system: HT29 colon
[19] = test system: IGROV1 ovarian
[20] = test system: K-562 leukemia
[21] = test system: KM12 colon
[22] = test system: LOX IMVI melanoma
[23] = test system: M14 melanoma
[24] = test system: MALME-3M melanoma
[25] = test system: MCF7 breast
[26] = test system: MDA-MB-231 breast
[27] = test system: MDA-MB-435
[28] = test system: MDA-N
[29] = test system: MOLT-4 leukemia
[30] = test system: NCI-H226 lung
[31] = test system: NCI-H23 lung
[32] = test system: NCI-H460 lung
[33] = test system: NCI-H522 lung
[34] = test system: NCI/ADR-RES ovarian
[35] = test system: OVCAR-3 ovarian
[36] = test system: OVCAR-4 ovarian
[37] = test system: OVCAR-5 ovarian
[38] = test system: OVCAR-8 ovarian
[39] = test system: PC-3 prostate
[40] = test system: RPMI-8226 leukemia
[41] = test system: RXF 393 renal
[42] = test system: SF-268 CNS
[43] = test system: SF-295 CNS
[44] = test system: SF-539 CNS
[45] = test system: SK-MEL-2 melanoma
[46] = test system: SK-MEL-28 melanoma
[47] = test system: SK-MEL-5 melanoma
[48] = test system: SN12C renal
[49] = test system: SNB-19 CNS
[50] = test system: SNB-75 CNS
[51] = test system: SR leukemia
[52] = test system: SW-620 colon
[53] = test system: T-47D breast
[54] = test system: TK-10 renal
[55] = test system: U251 CNS
[56] = test system: UACC-257 melanoma
[57] = test system: UACC-62 melanoma
[58] = test system: UO-31 renal
[59] = test system: SK-OV-3 ovarian

SMILES: Cc1ccc(-c2n[nH]c(=O)[nH]2)cc1
- TGI [1]: > 100 µM
- TGI [2]: > 100 µM
- TGI [3]: > 100 µM
- TGI [4]: > 100 µM
- TGI [5]: > 100 µM
- TGI [6]: > 100 µM
- TGI [7]: > 100 µM
- TGI [8]: > 100 µM
- TGI [9]: > 100 µM
- TGI [10]: > 100 µM
- TGI [11]: > 100 µM
- TGI [12]: > 100 µM
- TGI [13]: > 100 µM
- TGI [14]: > 100 µM
- TGI [15]: > 100 µM
- TGI [16]: > 46.4 µM
- TGI [17]: > 100 µM
- TGI [18]: > 100 µM
- TGI [19]: > 100 µM
- TGI [20]: > 100 µM
- TGI [21]: > 100 µM
- TGI [22]: > 100 µM
- TGI [23]: > 100 µM
- TGI [24]: > 100 µM
- TGI [25]: > 100 µM
- TGI [26]: > 100 µM
- TGI [27]: > 100 µM
- TGI [28]: > 100 µM
- TGI [29]: > 100 µM
- TGI [30]: > 100 µM
- TGI [31]: > 100 µM
- TGI [32]: > 100 µM
- TGI [33]: > 100 µM
- TGI [34]: > 100 µM
- TGI [35]: > 100 µM
- TGI [36]: > 100 µM
- TGI [37]: > 100 µM
- TGI [38]: > 100 µM
- TGI [39]: > 100 µM
- TGI [40]: > 100 µM
- TGI [41]: > 100 µM
- TGI [42]: > 100 µM
- TGI [43]: > 100 µM
- TGI [44]: > 100 µM
- TGI [45]: > 100 µM
- TGI [46]: > 100 µM
- TGI [47]: > 100 µM
- TGI [48]: > 100 µM
- TGI [49]: > 100 µM
- TGI [50]: > 100 µM
- TGI [51]: > 100 µM
- TGI [52]: > 100 µM
- TGI [53]: > 46.4 µM
- TGI [54]: > 100 µM
- TGI [55]: > 100 µM
- TGI [56]: 98.7 µM
- TGI [57]: > 100 µM
- TGI [58]: > 100 µM

SMILES: CC(C)(Br)C(=O)/C=C/c1ccccc1
- TGI [1]: 2.22 µM
- TGI [2]: 36.9 µM
- TGI [3]: 56.7 µM
- TGI [4]: 6.74 µM
- TGI [5]: 3.76 µM
- TGI [6]: 17.3 µM
- TGI [7]: 1.63 µM
- TGI [8]: 22 µM
- TGI [9]: 22.9 µM
- TGI [10]: 23 µM
- TGI [13]: 4.63 µM
- TGI [14]: 29 µM
- TGI [15]: 15.6 µM
- TGI [16]: 18 µM
- TGI [17]: > 60.3 µM
- TGI [18]: 18.3 µM
- TGI [19]: 1.79 µM
- TGI [20]: > 100 µM
- TGI [21]: 43.6 µM
- TGI [22]: 9.75 µM
- TGI [23]: 4.88 µM
- TGI [24]: 10.2 µM
- TGI [25]: 15.3 µM
- TGI [26]: > 69.8 µM
- TGI [27]: 22.2 µM
- TGI [28]: 21.4 µM
- TGI [29]: > 43.7 µM
- TGI [30]: 24 µM
- TGI [31]: 5 µM
- TGI [32]: 63.4 µM
- TGI [33]: 0.381 µM
- TGI [34]: > 75.5 µM
- TGI [35]: 25.4 µM
- TGI [36]: 5.58 µM
- TGI [37]: 19.7 µM
- TGI [38]: 5.2 µM
- TGI [39]: 33.7 µM
- TGI [40]: 3.14 µM
- TGI [41]: 3.12 µM
- TGI [42]: 51.2 µM
- TGI [43]: > 53.6 µM
- TGI [44]: 25.6 µM
- TGI [45]: 3.96 µM
- TGI [46]: 28.9 µM
- TGI [47]: 27.5 µM
- TGI [59]: > 83.1 µM
- TGI [48]: 22.5 µM
- TGI [49]: 78.3 µM
- TGI [50]: 32.6 µM
- TGI [51]: > 25.6 µM
- TGI [52]: 6.79 µM
- TGI [53]: > 52 µM
- TGI [54]: 37.9 µM
- TGI [55]: 20.5 µM
- TGI [56]: 28.8 µM
- TGI [57]: 19 µM
- TGI [58]: 3.68 µM
